Literature values in patent US10551383B2, “Methods of detecting a polypeptide having anaplastic lymphoma kinase activity in kidney cancer” (Cell Signaling Technology, Inc., priority 2010, dated 2020).

Test system: HGF-stimulated Madin-Darby Canine Kidney (MDCK) cells
Conditions: disclosed in U.S. Pub. No. 2008/0300273

C[C@@H](Oc1cc(-c2cnn(C3CCNCC3)c2)cnc1N)c1c(Cl)ccc(F)c1Cl [PF-02341066, Crizotinib]
cell colony scattering: able to reduce cell colony scattering
